Measured values as given in publication PMC8406319, “The dCache Chemoreceptor TlpA of Helicobacter pylori Binds Multiple Attractant and Antagonistic Ligands via Distinct Sites” (mBio, 2021).
Structures can show the parent of a compound that is named as a salt. Where two headings read alike, the source gives them in different places.

Experiments:
WT TlpALBD = assay: SPR competition (A-B-A) binding assay; parameters: species or system Helicobacter pylori SS1; settings: compounds at 10-fold their Kd
Method: The two ligands’ binding status can be classified as either independent, shared, or preferential shared sites. For independent sites, ligand A saturates all its binding sites, and ligand B then binds to its independent site; this mode produces additive effects on the SPR signal. […] Finally, it is also possible to have preferential shared sites where ligands share the same binding site, but the protein binds to one ligand preferentially when in equilibrium.
SPR competition assays were performed by using a Biacore S200 instrument and the A-B-A inject function ([56]). Competition A-B-A analyses were used to interrogate the specificity of the potential ligand binding site preferences of TlpALBD and to unravel the nature of the ligand-sensor interactions. This assay was designed to show if a cumulative response is observed when a second analyte (B) is flown across the bound protein saturated with the first analyte (A) (Fig. 4). […] The wild-type TlpALBD protein was immobilized as described above. […] All response data were normalized to a molecular weight of 100 Da for each analyte, allowing direct comparison of responses. Independent-site theoretical values are calculated by taking the sum of individual responses. Shared-site theoretical values are calculated by taking the sum of individual responses divided by the number of individual responses.

TlpAY252A = molecular target: T1, TlpAY252A (Helicobacter pylori, UniProt O24925, Y252A); assay: biochemical
T1 sequence (O24925 28-299 Y252A): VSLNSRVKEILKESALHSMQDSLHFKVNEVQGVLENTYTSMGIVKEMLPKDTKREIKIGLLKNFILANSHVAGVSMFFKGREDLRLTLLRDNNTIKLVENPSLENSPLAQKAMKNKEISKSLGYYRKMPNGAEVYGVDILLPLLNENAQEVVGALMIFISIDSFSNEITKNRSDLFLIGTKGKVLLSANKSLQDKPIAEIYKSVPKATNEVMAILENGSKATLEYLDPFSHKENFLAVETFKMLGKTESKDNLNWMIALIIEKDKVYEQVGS
Text: (§1) The periplasmic portion of TlpA (TlpALBD), amino acids 28 to 299, from Helicobacter pylori SS1 was cloned into a pBH4 expression vector (pBH4_TlpALBD) to generate an N-terminal 6×His-tagged construct, with a tobacco etch virus (TEV) protease site, under the control of isopropyl-β-D-thiogalactopyranoside (IPTG) ([19]). […] TlpALBD and all point mutants were purified as described previously by Sweeney et al. ([19]).
(§2) Purified TlpALBD was immobilized on a CM5 series S sensor chip, and binding affinities were tested using a Biacore S200 instrument (GE Healthcare) as described previously ([39], [57], [59]). Briefly, proteins were captured using an amine-coupling kit (GE Healthcare), in which the carboxylmethyl dextran matrix of the sensor chip was activated by the injection of a mixture of 0.2 M 1-ethyl-3-[(3-dimethylamino)propyl]-carbodiimide (EDC) and 0.05 M N-hydroxysuccinimide (NHS), followed by the neutralization of the remaining unreacted NHS ester groups by the injection of 1 M ethanolamine-HCl (pH 8.0). Purified TlpALBD was diluted in 10 mM sodium acetate buffer (pH 4.5) at a concentration of 100 μg/ml for immobilization to the chip. A total of 8,400 response units (RU) of TlpALBD were captured on flow cell 2. As a negative control, flow cell 1 was a blank control undergoing the same treatment as the other flow paths, without the protein injection. This set enabled double-reference subtraction of the responses (2 − 1, 3 − 1, and 4 − 1). The tested compounds were prepared as a stock concentration of 100 to 200 mM in PBS. The compounds were then diluted between 1 nM and 1 mM in a series of 1:10 dilutions in PBS and run over the flow cells at a flow rate of 30 μl/min. Between each sample testing, a series of buffer-only injections was run to enable double-blank subtraction for the sensorgram assessment. […] The data sets were analyzed using Biacore S200 evaluation software 2.0.2; sensorgrams were double-reference subtracted.

TlpALBD (TlpAWT) = molecular target: T2, TlpALBD (TlpAWT) (Helicobacter pylori, UniProt O24925); assay: biochemical; settings: SPR
T2 sequence (O24925 28-299): T1 sequence (O24925 28-299 Y252A)
Text: as §1, §2

TlpAM183A = molecular target: T3, TlpAM183A (Helicobacter pylori, UniProt O24925, M183A); assay: biochemical
T3 sequence (O24925 28-299 M183A): T1 sequence (O24925 28-299 Y252A)
Text: as §1, §2

TlpAY228A = molecular target: T4, TlpAY228A (Helicobacter pylori, UniProt O24925, Y228A); assay: biochemical
T4 sequence (O24925 28-299 Y228A): T1 sequence (O24925 28-299 Y252A)
Text: as §1, §2

TlpAD165A = molecular target: T5, TlpAD165A (Helicobacter pylori, UniProt O24925, D165A); assay: biochemical
T5 sequence (O24925 28-299 D165A): T1 sequence (O24925 28-299 Y252A)
Text: as §1, §2

TlpAD254A = molecular target: T6, TlpAD254A (Helicobacter pylori, UniProt O24925, D254A); assay: biochemical
T6 sequence (O24925 28-299 D254A): T1 sequence (O24925 28-299 Y252A)
Text: as §1, §2

[1] = Mean binding affinity ± SD, Table 1, n = 3
[2] = dissociation constant [Kd], WT TlpALBD

Compound | SPR response following initial saturation with glucosamine (WT TlpALBD) | SPR response after saturation of TlpALBD with fumarate (WT TlpALBD; compared to theoretical value) | Kd (TlpAY252A) [µM] | Kd (TlpALBD (TlpAWT); [1]) [µM] | Kd (TlpALBD (TlpAWT); [2]) [µM] | Kd (TlpAM183A) [µM] | Kd (TlpAY228A) [µM] | Kd (TlpAD165A) [µM] | Kd (TlpAD254A) [µM] | SPR response following saturation with arginine or fumarate (WT TlpALBD) | Kd (TlpAY228A; read-out: Mean binding affinity ± SD, TlpAY228A, SPR, membrane-proximal mutant, n = 3) [µM] | SPR response after saturation of TlpALBD with arginine (WT TlpALBD; compared to theoretical value) | Effect of TlpAD254A mutation on binding (TlpAD254A; membrane-proximal mutant vs WT)
N=C(N)NCCC[C@H](N)C(=O)O [Arginine, L-arginine monohydrochloride] | no additive response was observed | did not produce an additional response | 4.96 ± 1.8 | 2 ± 0.11 | < 10 | 22.3 ± 5.9 | 8.3 ± 1.6 | 12.4 ± 0.84 | 3.71 ± 0.73 |  |  |  | 
O=C(O)C[C@H](O)C(=O)O [Malic acid, L-malic acid] |  |  | 14.2 ± 6.2 | 46 ± 17 | > 45 | 33.6 ± 6.2 | 28.6 ± 9.4 | 11.9 ± 4.3 | 29.3 ± 2 |  |  |  | 
N[C@H]1C(O)O[C@H](CO)[C@@H](O)[C@@H]1O (stereo partly drawn) [Glucosamine, D(+)-glucosamine hydrochloride] |  |  | 2.96 ± 0.7 | 10.5 ± 2.8 | < 10 | 94.6 ± 57.3 |  | 96 ± 24.3 | 9.84 ± 3.7 | the response was not additive | 17.1 |  | 
O=C(O)/C=C/C(=O)O [Fumarate, sodium fumarate] | no additive response was observed |  | 8.5 ± 1.7 | 10 ± 1.53 | < 10 | 106 ± 36.6 | 46.6 ± 3.9 | 100 ± 38.9 | 44 ± 8.1 |  |  | increased response (additive effect) | affected only fumarate binding
Cc1ncc(C[n+]2csc(CCO)c2C)c(N)n1 [Thiamine, thiamine hydrochloride] |  |  | 35 ± 7.3 | 60 ± 0.6 | > 45 | 18.1 ± 1.2 | 29.5 ± 12.3 | 43.9 ± 14.1 | 39.3 ± 4.3 |  |  |  | 
N[C@@H](CS)C(=O)O [Cysteine, L-cysteine hydrochloride monohydrate] |  |  | 5.5 ± 0.8 | 4.7 ± 0.3 | < 10 | 36.1 ± 15.7 | 15.7 ± 6.6 | 41.9 ± 0.4 | 4.58 ± 1.5 |  |  |  | 
